Where two headings read alike, the source gives them in different places.
Legend:
BSA [1] = target: T1, BSA (Bos taurus, UniProt P02769); type: in vitro ADME, bovine; settings: for Effect on the plasma protein binding of metoprolol: BSA, metoprolol 0.5, 1 and 2 μg mL^−1, statistical results (p > 0.05); for fraction unbound at 60 min, 0.5 μg mL^−1 / fraction unbound at 60 min, 1 μg mL^−1 / fraction unbound at 60 min, 2 μg mL^−1: bovine, BSA solution
Nonspecific binding = type: in vitro ADME; settings: concentration recovered after ultrafiltration
plasma protein = settings: in humans; cited from earlier work
BSA [2] = target: T1, BSA; assay: Plasma protein binding of metoprolol in BSA by ultrafiltration and UPLC; type: in vitro ADME, bovine; settings: for C f: total free concentration in filtrate

T1 sequence (P02769 25-607): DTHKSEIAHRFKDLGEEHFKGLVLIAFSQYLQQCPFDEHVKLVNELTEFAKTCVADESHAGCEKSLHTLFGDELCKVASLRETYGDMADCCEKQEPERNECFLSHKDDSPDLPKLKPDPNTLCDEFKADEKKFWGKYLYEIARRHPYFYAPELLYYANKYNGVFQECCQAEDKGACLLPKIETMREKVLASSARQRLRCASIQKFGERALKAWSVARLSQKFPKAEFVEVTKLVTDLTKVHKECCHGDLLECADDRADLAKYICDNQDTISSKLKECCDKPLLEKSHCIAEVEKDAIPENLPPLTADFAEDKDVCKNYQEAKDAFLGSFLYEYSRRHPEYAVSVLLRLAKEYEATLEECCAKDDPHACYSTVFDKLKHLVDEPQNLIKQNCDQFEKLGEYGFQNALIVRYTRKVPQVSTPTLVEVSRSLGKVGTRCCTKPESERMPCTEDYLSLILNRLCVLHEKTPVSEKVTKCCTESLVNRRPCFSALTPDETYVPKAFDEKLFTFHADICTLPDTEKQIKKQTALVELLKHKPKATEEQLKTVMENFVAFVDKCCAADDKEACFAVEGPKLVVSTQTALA

In the case of `C=C1CCC[C@]2(C)C[C@]3(O)OC(=O)C(C)=C3C[C@@H]12` [Atractylenolide III, atractylenolide III], the “Effect on the plasma protein binding of metoprolol” value (“Effect” below) (BSA [1]) is reported as “unlikely to affect”.

For `O=C(O)/C=C/c1ccccc1` [Cinnamic acid, cinnamic acid], the “Effect” value (BSA [1]) was “unlikely to affect”.

With `CC1(C)[C@@H](O[C@H]2O[C@H](C(=O)O)[C@@H](O)[C@H](O)[C@H]2O[C@@H]2O[C@H](C(=O)O)[C@@H](O)[C@H](O)[C@H]2O)CC[C@]2(C)[C@H]3C(=O)C=C4[C@@H]5C[C@@](C)(C(=O)O)CC[C@]5(C)CC[C@@]4(C)[C@]3(C)CC[C@@H]12` [Glycyrrhizic acid, glycyrrhizic acid] the “Effect” value (BSA [1]) was “unlikely to affect”.

In the case of `O=C1C[C@@H](c2ccc(O[C@@H]3O[C@H](CO)[C@@H](O)[C@H](O)[C@H]3O)cc2)Oc2cc(O)ccc21` [Liquiritin, liquiritin], the “Effect” value (BSA [1]) is reported as “unlikely to affect”.

With `COCCc1ccc(OCC(O)CNC(C)C)cc1` (centres unmarked) [Metoprolol] the C post (Nonspecific binding; added 0.5 μg mL^−1) was 0.40 ± 0.02 µg/mL, the C post (Nonspecific binding; added 1.0 μg mL^−1) was 0.78 ± 0.03 µg/mL and the C post (Nonspecific binding; added 2.0 μg mL^−1) was 1.55 ± 0.05 µg/mL. For the same compound, the “mean plasma protein binding (PPB)” value (plasma protein) was 30.70 ± 2.76%, the fraction unbound at 60 min, 0.5 μg mL^−1 (BSA [2]; bovine, BSA solution) was 0.718 and the fraction unbound at 60 min, 1 μg mL^−1 (BSA [2]; bovine, BSA solution) was 0.703. The fraction unbound at 60 min, 2 μg mL^−1 (BSA [2]; bovine, BSA solution) was 0.716, the C f (BSA [2]; metoprolol 0.5 μg mL^−1 alone) was 0.36 ± 0.01 µg/mL and the C f (BSA [2]; metoprolol 1 μg mL^−1 alone) was 0.70 ± 0.02 µg/mL. The C f (BSA [2]; metoprolol 2 μg mL^−1 alone) was 1.45 ± 0.03 µg/mL, the fraction unbound at 60 min, 0.5 μg mL^−1 (BSA [1]; Plasma protein binding (with cinnamic acid), metoprolol 0.5 μg mL^−1 plus cinnamic acid 1 μg mL^−1, BSA) was 0.741 and the fraction unbound at 60 min, 1 μg mL^−1 (BSA [1]; Plasma protein binding (with cinnamic acid), metoprolol 1 μg mL^−1 plus cinnamic acid 1 μg mL^−1, BSA) was 0.693. It also gave a fraction unbound at 60 min, 2 μg mL^−1 (BSA [1]; Plasma protein binding (with cinnamic acid), metoprolol 2 μg mL^−1 plus cinnamic acid 1 μg mL^−1, BSA) of 0.716, a fraction unbound at 60 min, 0.5 μg mL^−1 (BSA [1]; Plasma protein binding (with glycyrrhizic acid), metoprolol 0.5 μg mL^−1 plus glycyrrhizic acid 2 μg mL^−1, BSA) of 0.721 and a fraction unbound at 60 min, 1 μg mL^−1 (BSA [1]; Plasma protein binding (with glycyrrhizic acid), metoprolol 1 μg mL^−1 plus glycyrrhizic acid 2 μg mL^−1, BSA) of 0.717. It also gave a fraction unbound at 60 min, 2 μg mL^−1 (BSA [1]; Plasma protein binding (with glycyrrhizic acid), metoprolol 2 μg mL^−1 plus glycyrrhizic acid 2 μg mL^−1, BSA) of 0.704, a fraction unbound at 60 min, 0.5 μg mL^−1 (BSA [1]; Plasma protein binding (with liquiritin), metoprolol 0.5 μg mL^−1 plus liquiritin 2 μg mL^−1, BSA) of 0.74 and a fraction unbound at 60 min, 1 μg mL^−1 (BSA [1]; Plasma protein binding (with liquiritin), metoprolol 1 μg mL^−1 plus liquiritin 2 μg mL^−1, BSA) of 0.708. It also gave a fraction unbound at 60 min, 2 μg mL^−1 (BSA [1]; Plasma protein binding (with liquiritin), metoprolol 2 μg mL^−1 plus liquiritin 2 μg mL^−1, BSA) of 0.701, a C free (BSA [1]; metoprolol 0.5 μg mL^−1 plus atractylenolide III (0.1 μg mL^−1)) of 0.37 ± 0.02 µg/mL and a C f (BSA [1]; metoprolol 0.5 μg mL^−1 plus cinnamic acid 1 μg mL^−1) of 0.37 ± 0.01 µg/mL. For the same compound, the C free (BSA [1]; metoprolol 0.5 μg mL^−1 plus glycyrrhizic acid 2 μg mL^−1) was 0.35 ± 0.02 µg/mL, the C free (BSA [1]; metoprolol 0.5 μg mL^−1 plus liquiritin 2 μg mL^−1) was 0.37 ± 0.01 µg/mL and the C free (BSA [1]; metoprolol 1 μg mL^−1 plus atractylenolide III (0.1 μg mL^−1)) was 0.70 ± 0.02 µg/mL. The C f (BSA [1]; metoprolol 1 μg mL^−1 plus cinnamic acid 1 μg mL^−1) was 0.69 ± 0.02 µg/mL, the C free (BSA [1]; metoprolol 1 μg mL^−1 plus glycyrrhizic acid 2 μg mL^−1) was 0.72 ± 0.02 µg/mL and the C free (BSA [1]; metoprolol 1 μg mL^−1 plus liquiritin 2 μg mL^−1) was 0.71 ± 0.03 µg/mL. For the same compound, the C free (BSA [1]; metoprolol 2 μg mL^−1 plus atractylenolide III (0.1 μg mL^−1)) was 1.40 ± 0.08 µg/mL, the C f (BSA [1]; metoprolol 2 μg mL^−1 plus cinnamic acid 1 μg mL^−1) was 1.44 ± 0.03 µg/mL and the C free (BSA [1]; metoprolol 2 μg mL^−1 plus glycyrrhizic acid 2 μg mL^−1) was 1.40 ± 0.03 µg/mL. It also gave a C free (BSA [1]; metoprolol 2 μg mL^−1 plus liquiritin 2 μg mL^−1) of 1.39 ± 0.03 µg/mL.
